# Reference: patent US9982016B2, “NPR-B agonists” (priority 2009, dated 2018)
# Like-named read-outs stand apart in the source and are kept apart here. Numbered stars: 1 amine (or outer) side, 2 acyl side, 3 side chain; on linkers, the order of the positions; unused ones are H or OH. Square brackets hold non-standard residues; d marks the D form. Peptide text beside a SMILES is read from it. * marks the point of attachment. Pro(4R-NH2) = N[C@H]1CN[C@H](C(=O)O)C1; X2 = O=C([C@H]1CCCN([*:1])C1)[*:2]; NMeR = CN[C@@H](CCCNC(=N)N)C(=O)O; X1 = CCCCCCCCN1CCC[C@H](C(=O)*)C1; dDap(Me2) = CN(C)C[C@@H](N)C(=O)O; Hyp = O=C(O)[C@@H]1C[C@@H](O)CN1; NMeF = CN[C@@H](Cc1ccccc1)C(=O)O; NMeL = CN[C@@H](CC(C)C)C(=O)O; Octanoyl = CCCCCCCC(=O)*
# Columns and labels:
# [1] = tested on: human colon adenocarcinoma cells; settings: 1 mM, within 24 h; cited from earlier work
# [2] = tested on: human renal carcinoma cells; settings: 100 μM; cited from earlier work
# [3] = tested on: chondrocytes; settings: low doses 10 to 100 pM, at the highest dose; cited from earlier work
# [4] = molecular target: T1, NPR-B (Homo sapiens, UniProt P20594); assay: NPR-B induced production of cyclic GMP in human glaucoma trabecular meshwork cells (GTM-3); type: cell-based
# T1 construct: endogenously NPR-B expressing GTM-3 cells; endogenous in cells; host or cells: GTM-3 (human glaucoma trabecular meshwork cells)
# T1 sequence (P20594 23-1047): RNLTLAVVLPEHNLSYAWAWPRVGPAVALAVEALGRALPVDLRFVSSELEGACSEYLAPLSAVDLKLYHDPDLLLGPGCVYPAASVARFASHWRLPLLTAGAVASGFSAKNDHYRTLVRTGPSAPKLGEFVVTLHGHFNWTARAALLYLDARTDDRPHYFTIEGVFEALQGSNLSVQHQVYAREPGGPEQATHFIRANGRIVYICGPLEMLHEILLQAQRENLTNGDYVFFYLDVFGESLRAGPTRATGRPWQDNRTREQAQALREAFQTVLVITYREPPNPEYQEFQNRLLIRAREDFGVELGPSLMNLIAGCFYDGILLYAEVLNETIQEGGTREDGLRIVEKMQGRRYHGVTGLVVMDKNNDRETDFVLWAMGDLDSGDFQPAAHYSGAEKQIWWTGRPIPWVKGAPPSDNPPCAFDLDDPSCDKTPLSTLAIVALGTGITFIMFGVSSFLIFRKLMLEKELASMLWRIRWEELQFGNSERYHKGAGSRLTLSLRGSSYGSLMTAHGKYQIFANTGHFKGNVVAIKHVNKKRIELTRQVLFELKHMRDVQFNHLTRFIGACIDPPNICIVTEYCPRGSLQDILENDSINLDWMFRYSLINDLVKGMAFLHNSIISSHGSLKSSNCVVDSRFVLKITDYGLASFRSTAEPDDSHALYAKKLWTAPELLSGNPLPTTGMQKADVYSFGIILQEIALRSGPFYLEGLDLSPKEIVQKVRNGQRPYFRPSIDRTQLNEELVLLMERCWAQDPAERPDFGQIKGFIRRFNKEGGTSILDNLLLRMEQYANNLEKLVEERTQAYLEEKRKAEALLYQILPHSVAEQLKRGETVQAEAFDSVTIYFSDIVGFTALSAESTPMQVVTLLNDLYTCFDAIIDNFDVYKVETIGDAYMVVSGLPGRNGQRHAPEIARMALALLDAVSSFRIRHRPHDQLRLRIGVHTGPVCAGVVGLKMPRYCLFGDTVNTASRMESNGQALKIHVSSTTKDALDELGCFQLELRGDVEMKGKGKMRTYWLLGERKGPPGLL
# [5] = NPR-B activation in GTM-3 cells, group set by EC50 and Emax (CNP = 100%), read-out: Activity (group)
"EC50 [4, 5]",SMILES,further results
–,"CC[C@H](C)[C@@H]1NC(=O)[C@H](CCCNC(=N)N)NC(=O)[C@H](CC(=O)O)NC(=O)[C@H](CCSC)NC(=O)[C@H](CCCNC(=N)N)NC(=O)CNC(=O)CNC(=O)[C@H](Cc2ccccc2)NC(=O)[C@@H](NC(=O)[C@H](CO)NC(=O)[C@H](CO)NC(=O)[C@H](CCCNC(=N)N)NC(=O)[C@H](CCCNC(=N)N)NC(=O)[C@H](CC(C)C)NC(=O)[C@@H](N)CO)CSSC[C@@H](C(=O)N[C@@H](CC(N)=O)C(=O)N[C@@H](CO)C(=O)N[C@@H](Cc2ccccc2)C(=O)N[C@@H](CCCNC(=N)N)C(=O)N[C@@H](Cc2ccc(O)cc2)C(=O)O)NC(=O)CNC(=O)[C@H](CC(C)C)NC(=O)CNC(=O)[C@H](CO)NC(=O)[C@H](CCC(N)=O)NC(=O)[C@H](C)NC(=O)CNC1=O [ANP, atrial natriuretic peptide]",decrease in cell number [1]: up to 97%
–,"CC[C@H](C)[C@@H]1NC(=O)[C@H](CCCNC(=N)N)NC(=O)[C@H](CC(=O)O)NC(=O)[C@H](CC(C)C)NC(=O)[C@H](CCCCN)NC(=O)[C@H](CC(C)C)NC(=O)CNC(=O)[C@H](Cc2ccccc2)NC(=O)[C@@H](NC(=O)CNC(=O)[C@H](CCCCN)NC(=O)[C@H](CO)NC(=O)[C@H](CC(C)C)NC(=O)CN)CSSC[C@@H](C(=O)O)NC(=O)CNC(=O)[C@H](CC(C)C)NC(=O)CNC(=O)[C@H](CO)NC(=O)[C@H](CCSC)NC(=O)[C@H](CO)NC(=O)CNC1=O [CNP, C-type natriuretic peptide]",decrease in cell number [2]: 10%; increase in cellularity (chondrocyte proliferation) [3]: up to 43%
< 1 µM,"CCCCCCCCN1CCC[C@H](C(=O)N[C@@H](Cc2ccccc2)C(=O)N[C@H](CN(C)C)C(=O)N[C@@H](CC(C)C)C(=O)N2C[C@H](N)C[C@H]2C(=O)N(C)[C@@H](CC(C)C)C(=O)N[C@@H](CC(=O)O)C(=O)N[C@@H](CCCNC(=N)N)C(=O)N[C@H](C(N)=O)[C@@H](C)CC)C1 [JAL-1369, Oct-Sni-Phe-dap(Me2)-Leu-Tap-Nml-Asp-Arg-Ile-NH2] (X1-F[dDap(Me2)]L[Pro(4R-NH2)][NMeL]DRI-NH2)",–
< 1 µM,"CCCCCCCCN1CCC[C@H](C(=O)N[C@@H](Cc2ccccc2)C(=O)N[C@H](CN(C)C)C(=O)N[C@@H](CC(C)C)C(=O)N2C[C@H](O)C[C@H]2C(=O)N(C)[C@@H](CC(C)C)C(=O)N[C@@H](CC(=O)O)C(=O)N[C@@H](CCCNC(=N)N)C(=O)N[C@H](C(N)=O)[C@@H](C)CC)C1 [JAL-1429, Oct-Sni-Phe-dap(Me2)-Leu-Hyp-Nml-Asp-Arg-Ile-NH2] (HELM PEPTIDE1{[CCCCCCCCN1CCC[C@H](C(=O)[*:2])C1].F.[CN(C)C[C@@H](N[*:1])C(=O)[*:2]].L.[Hyp].[meL].D.R.I.[am]}$$$$V2.0)",–
< 1 µM,"CCCCCCCC(=O)N[C@H](C)C(=O)N[C@@H](Cc1ccccc1)C(=O)N[C@H](CC(C)C)C(=O)N[C@@H](CC(C)C)C(=O)N1C[C@H](O)C[C@H]1C(=O)N(C)[C@@H](CC(C)C)C(=O)N[C@@H](C(=O)N[C@@H](CCCNC(=N)N)C(=O)N[C@H](C(N)=O)[C@@H](C)CC)c1cccs1 [JAL-1558, Occ-ala-Phe-leu-Leu-Hyp-Nml-(BB727)-Arg-Ile-NH2] (HELM PEPTIDE1{[CCCCCCCC(=O)[*:2]].[dA].F.[dL].L.[Hyp].[meL].[O=C([C@H](N[*:1])c1cccs1)[*:2]].R.I.[am]}$$$$V2.0)",–
< 1 µM,"CCCCCCCC(=O)N1CCC[C@H](C(=O)N[C@@H](Cc2ccccc2)C(=O)N[C@H](CN(C)C)C(=O)N[C@@H](CC(C)C)C(=O)N2C[C@H](O)C[C@H]2C(=O)N(C)[C@@H](CC(C)C)C(=O)N[C@@H](CC(=O)O)C(=O)N(C)[C@@H](CCCNC(=N)N)C(=O)N[C@H](C(N)=O)[C@@H](C)CC)C1 [JAL-1576, Occ-Sni-Phe-dap(Me2)-Leu-Hyp-Nml-Asp-Nmr-Ile-NH2] (Octanoyl-[X2]F[dDap(Me2)]L[Hyp][NMeL]D[NMeR]I-NH2)",–
< 1 µM,"CCCCCCCC(=O)N1CCC[C@H](C(=O)N(C)[C@@H](Cc2ccccc2)C(=O)N[C@H](CN(C)C)C(=O)N[C@@H](CC(C)C)C(=O)N2C[C@H](O)C[C@H]2C(=O)N(C)[C@@H](CC(C)C)C(=O)N[C@@H](CC(=O)O)C(=O)N[C@@H](CCCNC(=N)N)C(=O)N[C@H](C(N)=O)[C@@H](C)CC)C1 [JAL-1579, Occ-Sni-Nmf-dap(Me2)-Leu-Hyp-Nml-Asp-Arg-Ile-NH2] (Octanoyl-[X2][NMeF][dDap(Me2)]L[Hyp][NMeL]DRI-NH2)",–
< 1 µM,"CCCCCCCC(=O)N1CCC[C@H](C(=O)N[C@@H](Cc2ccccc2)C(=O)N[C@H](CN(C)C)C(=O)N[C@@H](CC(C)C)C(=O)N2C[C@H](O)C[C@H]2C(=O)N(C)[C@@H](CC(C)C)C(=O)N[C@@H](CC(=O)O)C(=O)N2CCC[C@H]2C(=O)N[C@H](C(N)=O)[C@@H](C)CC)C1 [JAL-1580, Occ-Sni-Phe-dap(Me2)-Leu-Hyp-Nml-Asp-Pro-Ile-NH2] (Octanoyl-[X2]F[dDap(Me2)]L[Hyp][NMeL]DPI-NH2)",–
–,"CC[C@H](C)[C@@H]1NC(=O)[C@H](CCCNC(=N)N)NC(=O)[C@H](CC(=O)O)NC(=O)[C@H](CCSC)NC(=O)[C@H](CCCNC(=N)N)NC(=O)CNC(=O)CNC(=O)[C@H](Cc2ccccc2)NC(=O)[C@H](Cc2c[nH]cn2)NC(=O)[C@@H](NC(=O)[C@@H](N)CCSC)CSSC[C@@H](C(=O)N[C@@H](Cc2ccc(O)cc2)C(=O)N[C@@H](CCCNC(=N)N)C(N)=O)NC(=O)[C@H](CO)NC1=O [mini-ANP, reference compound] (HELM PEPTIDE1{M.C.H.F.G.G.R.M.D.R.I.S.C.Y.R.[am]}$PEPTIDE1,PEPTIDE1,2:R3-13:R3$$$V2.0)","EC50 ([4]; GTM-3 cells, 4-Parameter Logistic Equation, highest concentration 45 μM, FIG. 2, read-out: EC50, cyclic GMP production in GTM-3 cells): > 45 µM"
